Source: patent US9403756B2, “N-phenyl anthranilic acid derivatives and uses thereof” (Ramot at Tel-Aviv University Ltd., priority 2007, dated 2016)
Where “and” joins values, the source holds several entries; their conditions need not be identical. Identical values can stand only once. Like-named read-outs stand apart in the source and are kept apart here.

Experiments:
[1] = tested on: COX; experiment: Anti-COX activity in cell culture, CT26 and D122 cell lines (results in words); format: cell-based, mouse; details: COX-dependent synthesis of PGE2
Description: Mouse colon adenocarcinoma CT26 and mouse lewis lung carcinoma D122 cells were grown in DMEM (D122) or RPMI (CT26) supplemented with 10% fetal calf serum, 4% glutamine, 1% penicillin-streptomycin-nystatin and 3% non essential amino acids (D122) and were kept in a humidified 37° C. incubator with 5% CO2. For the COX activity assays, cells were grown onto 24 multi-well plates.
Before the assay, cells were washed with serum-free medium; then the tested compounds were added to the medium and incubated for 30 minutes at 37° C. after which 30 μM arachidonic acid were added and incubated for additional 20 minutes. At the end of the incubation period, 10 μM Indomethacin were added to stop the reaction and medium was transferred to another 24 multi-well plate for measuring PGE2 production by radioimmunoassay (DuPont-NEN; Boston Mass.) according to manufacturer protocol. Protein determination was assayed on scraped cells using the Bradford method (1976) [Bradford M. M. 1976. Anal. Biochem. 72:248-254], with BSA as a standard and was used to normalize the amount of PGE2 production.
The anti-COX activity of NH25, NH29 and NH30 was examined in Mouse colon adenocarcinoma CT26 and mouse lewis lung carcinoma D122 cell lines. Cells were incubated with each of the tested compounds and the level of the COX-dependent synthesis of PGE2 was quantified using radioimmunoassay techniques.

[2] = target: T1, Kv7.2/3 channels (Homo sapiens, UniProt O43525+O43526); experiment: Kv7.2/3 channels coexpressed in CHO cells, whole-cell patch-clamp; format: cell-based; details: for V50: control V50=−32.1±8.9 mV; for fold increase in current amplitude: stepped from −90 to −50 mV, n=10; for Activity: M-channel modulation, Kv7.2 and Kv7.3 subunits coexpressed in CHO cells; for ΔV50 (mV): left-shift of the activation curve of Kv7.2/3 channels
T1 construct: expressed in transfected cells; host or cells: CHO cells
Description: Chinese hamster ovary (CHO) cells were grown in Dulbecco's modified Eagle's medium (DMEM) supplemented with 2 mM glutamine, 10% fetal calf serum and antibiotics. Briefly, 40,000 cells seeded on poly-D-lysine-coated glass coverslips (13 mm diameter) in a 24-multiwell plate were transfected with pIRES-CD8 (0.5 μg) as a marker for transfection, and with Kv7.2 (0.5 μg) and Kv7.3 (0.5 μg) or TRPV1 […] or TRPV6 […].
For electrophysiology, transfected cells were visualized approximately 40 hours following transfection, using anti-CD8 antibody-coated beads. Transfection was performed using Fugene 6 (Roche, Indianapolis Ind., USA) according to the manufacturer's protocol.
Voltage-clamp recordings in CHO cells were performed, using the whole-cell configuration of the patch-clamp technique. Signals were amplified using an Axopatch 200B patch-clamp amplifier (Molecular Devices, Sunnyvale, Calif.), sampled at 2 kHz and filtered at 800 Hz via a 4-pole Bessel low pass filter. […] The patch pipettes were pulled from borosilicate glass (Warner Instrument Corp, USA) with a resistance of 2-5 MΩ. For K^+ current recordings in CHO cells, the intracellular pipette solution contained (in mM): 130 KCl, 1 MgCl2, 5 K2ATP, 5 EGTA, 10 HEPES, adjusted with KOH to pH 7.4 (290 mOsm). The extracellular solution contained (in mM): 140 NaCl, 4 KCl, 1.8 CaCl2, 1.2 MgCl2, 11 glucose, 5.5 HEPES, adjusted with NaOH to pH 7.4 (310 mOsm).
Data analysis was performed using the Clampfit program (pClamp 9.2, Molecular Devices), Microsoft Excel (Microsoft) and Prism 4.0 (GraphPad). Chord conductance (G) was calculated by using the following equation: G=I/(V−Vrev) where I corresponds to the current amplitude measured at the end of the pulse and Vrev, the calculated reversal potential. G was estimated at various test voltages V and then, normalized to a maximal conductance value, Gmax. Activation curves were fitted by one Boltzmann distribution: G/Gmax=1/{1+exp[(V50−V)/s]} where V50 is the voltage at which the current is half-activated and s is the slope factor. All data were expressed as mean±SEM. Statistically significant differences were assessed by Student's t-test. Analysis of sEPSCs and sIPSCs was done using the Clampfit program (pClamp 9.2, Molecular Devices) and included evaluation of the individual events as well as the average event amplitude and the integral of the event (total charge transfer).
In these studies, the impact of the compounds on M-channel activity was measured by the heterologous coexpression of Kv7.2 and Kv7.3 subunits in CHO cells.

| Structure (SMILES) | anti-COX activity [1] | left-shift of Kv7.2/3 activation curve compared to control ([2]; 10 μM) [mV] | V50 ([2]; 10 μM NH25, n=5) [mV] | fold increase in current amplitude ([2]; 10 μM) [fold] | left-shift of Kv7.2/3 activation curve compared to control ([2]; 50 μM) [mV] | V50 ([2]; 50 μM NH25, n=5) [mV] | fold increase in current amplitude ([2]; 50 μM) [fold] | left-shift of Kv7.2/3 activation curve compared to control ([2]; 200 μM) [mV] | V50 ([2]; 200 μM NH25, n=5) [mV] | Activity [2] | deactivation kinetics τdeact ([2]; NH25, tail currents at −60 mV, control 129±22 ms, n=5) [ms] | ΔV50 (mV) [2] | EC50 ([2]; opener potency, concentration-dependent left-shift in half-activation potential ΔV50, sigmoidal fit, read-out: EC50) [µM] | EC50 [2] [µM] | fold increase of Kv7.2/3 current amplitude ([2]; 25 μM, at −50 mV, n=5) [fold] | left-shift of Kv7.2/3 activation curve compared to control ([2]; 100 μM) [mV] | EC50 ([2]; opener potency, concentration-dependent left-shift in half-activation potential ΔV50, sigmoidal fit) [µM] |
| --- | --- | --- | --- | --- | --- | --- | --- | --- | --- | --- | --- | --- | --- | --- | --- | --- | --- |
| O=C(Cc1cc([N+](=O)[O-])ccc1Nc1c(Cl)cccc1Cl)OCCO [NH25] | exhibited anti-COX activity comparable to that of Diclofenac | −11 | −43.6±9.0 | 3.2 | −21 | −53.5±9.3 | 9.1 | −31 | −63.1±2.0 | Opener | 284 ± 43 | −31.0 mV and −31 mV | 22 | – | – | – | – |
| O=C(Cc1cc([N+](=O)[O-])cc([N+](=O)[O-])c1Nc1c(Cl)cc([N+](=O)[O-])cc1Cl)NCCO [NH29] | did not exhibit anti-COX activity | −13 | – | – | – | – | – | – | – | Opener | – | −31.3 mV | – | 14 ± 2 | 9.4±1.2 | −31 | 14 |
